Measured values as given in paper PMC6274355, “Synthesis and Anti-HIV-1 Activity Evaluation for Novel 3a,6a-Dihydro-1H-pyrrolo[3,4-c]pyrazole-4,6-dione Derivatives” (Molecules, 2016).
Where two headings read alike, the source gives them in different places.

Legend:
HIV-1IIIB = test: Syncytia inhibition assay (HIV-1IIIB infected C8166 cells); format: cell-based; details: for TI (in vitro therapeutic index, CC50 value/EC50 value): CC50 in C8166 cells / EC50 syncytia inhibition; for EC50: HIV-1IIIB infected C8166 cells, 72 h, means of two separate experiments, read-out: EC50 (50% effective concentration, reduces syncytia formation by 50%)
Procedure: Target compounds 6–16 were evaluated for their inhibitory activity against HIV-1 replication in acutely infected C8166 cells in vitro according to the previously described method, and AZT was used as a positive control. The assay results of the target compounds are presented in Table 1 and Table 2, expressed as CC50, EC50 and therapeutic index (TI).
The syncytia inhibition assay was applied by counting syncytia which were formed by HIV-1IIIB infected C8166 cells. Briefly, HIV-1IIIB supernatant and C8166 cells were seeded in a 96-well plate with different concentration of compounds. The plate was incubated in a 37 °C, 5% CO2 incubator for 72 h. Syncytia were counting under an inverted microscope and 50% effective concentration (EC50) was calculated. Therapeutic index (TI) was calculated by the ratio of CC50/EC50.

C8166 cells = test: Cytotoxicity assay (MTT); format: cell-based
Procedure: (§1) The cytotoxicty assay was performed by 3-(4,5-dimethylthiazol-2-yl)-2,5-diphenyl tetrazoliumbromide (MTT) method. Briefly, 100 μL 4 × 10^4 C8166 cells were seeded each well with 100 μL of different concentrations of compounds in a 96-well plate. The plate was incubated 72 h at 37 °C, 5% CO2 incubator. MTT (20 μL, 5 mg/mL) was added to each well and the plate was incubated at 37 °C for 4 h. Supernatant (100 μL) was discarded and 20% SDS-50% DMF (100 μL) was added. The plates were read at 570/630 nm by a Bio-Tek Elx 800 reader (Bio-Tek Instruments, Inc., Winooski, VT, USA). The 50% cytotoxic concentration (CC50) was calculated.

Cytotoxicity assay (MTT) = format: cell-based; details: human; C8166 cells, MTT, 72 h; means of two separate experiments; read-out: CC50 (50% cytotoxic concentration)
Procedure: as §1

HIV = test system: HIV; set-up: method as in earlier work; details: Figure 1; cited from earlier work
[1] = Human immunodeficiency virus 1, C8166, 72 h

Row | Molecule | TI (in vitro therapeutic index, CC50 value/EC50 value) (HIV-1IIIB) | EC50 (HIV-1IIIB) | CC50 (C8166 cells) | EC50 (HIV-1IIIB; [1]) | CC50 at 72 h (Cytotoxicity assay (MTT)) | CC50 (C8166 cells; C8166 cells, MTT, 72 h, means of two separate experiments, read-out: CC50 (50% cytotoxic concentration)) | EC50 (HIV)
1 | 3-(2,3-Dihydroxyphenyl)-1-(4-fluorophenyl)-5-[2-(4-fluorophenyl)ethyl]-3a,6a-dihydro-1H-pyrrolo[3,4-c]pyrazole-4,6-dione [10b] | 39.85 | 4.73 µM | 189 µM | – | – | – | –
2 | COc1cccc(C2=NN(c3ccccc3)C3C(=O)N(CCc4ccc(F)cc4)C(=O)C23)c1O (centres unmarked) [15h, 5-[2-(4-Fluorophenyl)ethyl]-3-(2-hydroxy-3-methoxyphenyl)-1-phenyl-3a,6a-dihydro-1H-pyrrolo[3,4-c]pyrazole-4,6-dione] | >15.22 | – | – | 28.6 µM | > 436 µM | – | –
3 | COc1cccc(C2=NN(c3ccc(C)cc3)C3C(=O)N(CCc4ccc(F)cc4)C(=O)C23)c1O (centres unmarked) [15i, 5-[2-(4-Fluorophenyl)ethyl]-3-(2-hydroxy-3-methoxyphenyl)-1-(4-methylphenyl)-3a,6a-dihydro-1H-pyrrolo[3,4-c]pyrazole-4,6-dione] | >103.09 | 4.1 µM | – | < 5 µM | > 423 µM | – | –
4 | COc1ccc(N2N=C(c3cccc(OC)c3O)C3C(=O)N(CCc4ccc(F)cc4)C(=O)C32)cc1 (centres unmarked) [15j, 5-[2-(4-Fluorophenyl)-ethyl]-3-(2-hydroxy-3-methoxyphenyl)-1-(4-methoxyphenyl)-3a,6a-dihydro-1H-pyrrolo[3,4-c]pyrazole-4,6-dione] | >19.34 | – | – | 21.1 µM | > 409 µM | – | –
5 | COc1cccc(C2=NN(c3ccc(F)cc3)C3C(=O)N(CCc4ccccc4F)C(=O)C23)c1O (centres unmarked) [16a, 1-(4-Fluorophenyl)-5-[2-(2-fluorophenyl)ethyl]-3-(2-hydroxy-3-methoxyphenyl)-3a,6a-dihydro-1H-pyrrolo[3,4-c]pyrazole-4,6-dione] | 7.78 | – | – | 2.52 µM | 19.6 µM | – | –
6 | COc1cccc(C2=NN(c3ccc(F)cc3)C3C(=O)N(CCc4cccc(F)c4)C(=O)C23)c1O (centres unmarked) [16b, 1-(4-Fluorophenyl)-5-[2-(3-fluorophenyl)ethyl]-3-(2-hydroxy-3-methoxyphenyl)-3a,6a-dihydro-1H-pyrrolo[3,4-c]pyrazole-4,6-dione] | 11.01 | – | – | 13 µM | 143 µM | – | –
7 | COc1cccc(C2=NN(c3ccc(F)cc3)C3C(=O)N(CCc4ccc(Cl)cc4)C(=O)C23)c1O (centres unmarked) [16c, 5-[2-(4-Chlorophenyl)-ethyl]-1-(4-fluorophenyl)-3-(2-hydroxy-3-methoxyphenyl)-3a,6a-dihydro-1H-pyrrolo[3,4-c]pyrazole-4,6-dione] | 6.73 | – | – | 10.4 µM | 70.1 µM | – | –
8 | COc1cccc(C2=NN(c3ccc(F)cc3)C3C(=O)N(CCc4ccccc4)C(=O)C23)c1O (centres unmarked) [16d, 1-(4-Fluorophenyl)-3-(2-hydroxy-3-methoxyphenyl)-5-phenethyl-3a,6a-dihydro-1H-pyrrolo[3,4-c]pyrazole-4,6-dione] | >23.09 | – | – | 18.9 µM | > 436 µM | – | –
9 | COc1ccc(CCN2C(=O)C3C(c4cccc(OC)c4O)=NN(c4ccc(F)cc4)C3C2=O)cc1 (centres unmarked) [16e, 1-(4-Fluorophenyl)-3-(2-hydroxy-3-methoxyphenyl)-5-[2-(4-methoxyphenyl)ethyl]-3a,6a-dihydro-1H-pyrrolo[3,4-c]pyrazole-4,6-dione] | 2.52 | – | – | 87.2 µM | 219 µM | – | –
10 | Cc1cn([C@H]2C[C@H](N=[N+]=[N-])[C@@H](CO)O2)c(=O)[nH]c1=O [AZT, reference compound] | 444,588 | 0.0085 µM | – | – | – | 3780 µM | –
11 | CCOC(=O)c1ncc(O)c2c1C(=O)N(CCc1ccc(F)cc1)C2=O [compound 5] | – | – | – | – | – | – | 1.65 µM
12 | O=C1C2C(c3cccc(O)c3O)=NN(c3ccc(F)cc3)C2C(=O)N1CCc1ccc(F)cc1 (centres unmarked) [compound 6, 3-(2,3-Dihydroxyphenyl)-1-(4-fluorophenyl)-5-[2-(4-fluorophenyl)ethyl]-3a,6a-dihydro-1H-pyrrolo[3,4-c]pyrazole-4,6-dione] | >16.37 | – | – | 26.4 µM | > 432 µM | – | –
13 | O=C1C2C(c3ccccc3O)=NN(c3ccc(F)cc3)C2C(=O)N1CCc1ccc(F)cc1 (centres unmarked) [compound 8, 1-(4-Fluorophenyl)-5-[2-(4-fluorophenyl)ethyl]-3-(2-hydroxyphenyl)-3a,6a-dihydro-1H-pyrrolo[3,4-c]pyrazole-4,6-dione] | >44.25 | – | – | 10.1 µM | > 447 µM | – | –
14 | COc1cc([N+](=O)[O-])cc(C2=NN(c3ccc(F)cc3)C3C(=O)N(CCc4ccc(F)cc4)C(=O)C23)c1O (centres unmarked) [compound 11, 1-(4-Fluorophenyl)-5-[2-(4-fluorophenyl)ethyl]-3-(2-hydroxy-3-methoxy-5-nitrophenyl)-3a,6a-dihydro-1H-pyrrolo[3,4-c]pyrazole-4,6-dione] | 2.15 | – | – | 41.9 µM | 90.3 µM | – | –
15 | O=C1C2C(c3c(O)ccc4ccccc34)=NN(c3ccc(F)cc3)C2C(=O)N1CCc1ccc(F)cc1 (centres unmarked) [compound 13, 1-(4-Fluorophenyl)-5-[2-(4-fluorophenyl)ethyl]-3-(2-hydroxynaphthalen-1-yl)-3a,6a-dihydro-1H-pyrrolo[3,4-c]pyrazole-4,6-dione] | 2.00 | – | – | 4.5 µM | 9.03 µM | – | –
